Reference: ChEMBL document CHEMBL5705898 (Proc Natl Acad Sci U S A, 2014)

Experiments:
[1] = target: Prostaglandin F2-alpha receptor (Homo sapiens) (UniProt P43088); assay: Inhibition of human FP receptor at 10 uM relative to control
Homo sapiens [2] = species on record: Homo sapiens; assay: Inhibition of Ca2+ channel L, verapamil site (unknown origin) at 10 uM relative to control
[3] = target: 72 kDa type IV collagenase (Homo sapiens) (UniProt P08253); assay: Inhibition of human MMP-2 at 10 uM relative to control
[4] = target: Adenosine receptor A2a (Homo sapiens) (UniProt P29274); assay: Inhibition of human A2A receptor at 10 uM relative to control
[5] = target: Muscarinic acetylcholine receptor M3 (Homo sapiens) (UniProt P20309); assay: Inhibition of human M3 receptor at 10 uM relative to control
[6] = target: Prostaglandin E2 receptor EP2 subtype (Homo sapiens) (UniProt P43116); assay: Inhibition of human EP2 receptor at 10 uM relative to control
[7] = target: Bombesin receptor subtype-3 (Homo sapiens, UniProt P32247); assay: Inhibition of human BB3 receptor
[8] = target: Adenosine receptor A2b (Homo sapiens) (UniProt P29275); assay: Inhibition of human A2B receptor at 10 uM relative to control
[9] = target: Alpha-2A adrenergic receptor (Homo sapiens) (UniProt P08913); assay: Inhibition of human alpha 2A receptor at 10 uM relative to control
[10] = target: 5-hydroxytryptamine receptor 7 (Homo sapiens) (UniProt P34969); assay: Inhibition of human 5-HT7 receptor at 10 uM relative to control
[11] = target: Mitogen-activated protein kinase 14 (Homo sapiens) (UniProt Q16539); assay: Inhibition of human P38alpha kinase at 10 uM relative to control
Homo sapiens [12] = species on record: Homo sapiens; assay: Inhibition of kainate receptor (unknown origin) at 10 uM relative to control
Caspase-3 (Homo sapiens) = Caspase-3 (Homo sapiens) (UniProt P42574); assay: Inhibition of human caspase-3 at 10 uM relative to control
[13] = target: Vasopressin V1a receptor (Homo sapiens) (UniProt P37288); assay: Inhibition of human V1a at 10 uM relative to control
[14] = target: Cysteinyl leukotriene receptor 1 (Homo sapiens) (UniProt Q9Y271); assay: Inhibition of human CysLT1 at 10 uM relative to control
Homo sapiens [15] = species on record: Homo sapiens; assay: Inhibition of human CDK2/CycA at 10 uM relative to control
[16] = target: Matrix metalloproteinase-9 (Homo sapiens) (UniProt P14780); assay: Inhibition of human MMP-9 at 10 uM relative to control
[17] = Permeability of compound in MDCKII-LE cells; type: ADME, cell-based, Canis lupus familiaris; details: dog, MDCK; read-out: permeability
[18] = target: Glutamate [NMDA] receptor (Homo sapiens) (UniProt Q05586+Q12879+Q13224+O15399+O60391+Q14957+Q8TCU5); assay: Inhibition of NMDA receptor (unknown origin) at 10 uM relative to control; type: protein-complex assay
[19] = target: Substance-P receptor (Homo sapiens) (UniProt P25103); assay: Inhibition of human NK1 receptor at 10 uM relative to control
[20] = target: xanthine oxidase (Xanthine dehydrogenase/oxidase) (Homo sapiens, UniProt P47989); assay: Inhibition of xanthine oxidase (unknown origin) at 10 uM relative to control
[21] = target: Sodium-dependent noradrenaline transporter (Homo sapiens) (UniProt P23975); assay: Inhibition of human norepinephrine transporter at 10 uM relative to control
[22] = target: Type-1 angiotensin II receptor (Homo sapiens) (UniProt P30556); assay: Inhibition of human AT1 receptor at 10 uM relative to control
[23] = target: Muscarinic acetylcholine receptor M1 (Homo sapiens) (UniProt P11229); assay: Inhibition of human M1 receptor at 10 uM relative to control
[24] = target: 5-hydroxytryptamine receptor 1D (Homo sapiens) (UniProt P28221); assay: Inhibition of 5-HT1D receptor (unknown origin) at 10 uM relative to control
[25] = target: Melanocyte-stimulating hormone receptor (Homo sapiens) (UniProt Q01726); assay: Inhibition of MC1 receptor (unknown origin) at 10 uM relative to control
[26] = target: Peroxisome proliferator-activated receptor gamma (Homo sapiens) (UniProt P37231); assay: Inhibition of human PPARgamma at 10 uM relative to control
[27] = Inhibition of Ca2+ channel L, diltiazem site (unknown origin); set-up: species or system Homo sapiens
[28] = target: Beta-1 adrenergic receptor (Homo sapiens) (UniProt P08588); assay: Inhibition of human beta 1 receptor at 10 uM relative to control
Homo sapiens [29] = species on record: Homo sapiens; assay: Inhibition of Ca2+ channel L, dihydropyridine site (unknown origin) at 10 uM relative to control
[30] = target: Vasoactive intestinal polypeptide receptor 1 (Homo sapiens) (UniProt P32241); assay: Inhibition of human VPAC1 at 10 uM relative to control
U2OS = assay: Cytotoxicity against human U2OS cells assessed as reduction in cell viability at <50 uM by alamar blue assay; type: toxicity, cell-based
MDA-MB-231 = assay: Cytotoxicity against human MDA-MB-231 cells assessed as reduction in cell viability at <50 uM by alamar blue assay; type: toxicity, cell-based; details: mda-mb-231, 50 µM
[31] = target: Cannabinoid receptor 1 (Homo sapiens) (UniProt P21554); assay: Inhibition of human CB1 receptor at 10 uM relative to control
[32] = target: Adenosine receptor A1 (Homo sapiens) (UniProt P30542); assay: Inhibition of human A1 receptor at 10 uM relative to control
[33] = target: Somatostatin receptor type 1 (Homo sapiens) (UniProt P30872); assay: Inhibition of human sst1 at 10 uM relative to control
Homo sapiens [34] = species on record: Homo sapiens; assay: Inhibition of human sigma receptor at 10 uM relative to control
Homo sapiens [35] = species on record: Homo sapiens; assay: Inhibition of human UT at 10 uM relative to control
[36] = target: Alpha-2C adrenergic receptor (Homo sapiens) (UniProt P18825); assay: Inhibition of human alpha 2C receptor at 10 uM relative to control
Homo sapiens [37] = species on record: Homo sapiens; assay: Inhibition of human NOP(ORL1) at 10 uM relative to control
[38] = target: Angiotensin-converting enzyme 2 (Homo sapiens) (UniProt Q9BYF1); assay: Inhibition of human ACE-2 at 10 uM relative to control
[39] = target: Histamine H3 receptor (Homo sapiens) (UniProt Q9Y5N1); assay: Inhibition of human H3 receptor at 10 uM relative to control
[40] = target: Mu-type opioid receptor (Homo sapiens) (UniProt P35372); assay: Inhibition of human mu opioid receptor at 10 uM relative to control
Sequence of Mu-type opioid receptor (Homo sapiens) (P35372 whole entry): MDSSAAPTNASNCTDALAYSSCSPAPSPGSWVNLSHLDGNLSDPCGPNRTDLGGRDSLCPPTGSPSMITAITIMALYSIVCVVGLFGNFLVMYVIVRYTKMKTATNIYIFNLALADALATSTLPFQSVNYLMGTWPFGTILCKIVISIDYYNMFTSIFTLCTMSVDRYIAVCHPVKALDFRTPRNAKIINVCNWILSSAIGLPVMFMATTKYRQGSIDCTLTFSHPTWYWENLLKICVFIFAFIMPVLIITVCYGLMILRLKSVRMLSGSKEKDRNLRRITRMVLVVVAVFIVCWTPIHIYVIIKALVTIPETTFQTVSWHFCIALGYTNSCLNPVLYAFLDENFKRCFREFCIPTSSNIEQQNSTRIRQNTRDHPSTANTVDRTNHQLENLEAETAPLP

Sequence of Peroxisome proliferator-activated receptor gamma (Homo sapiens) (P37231 whole entry): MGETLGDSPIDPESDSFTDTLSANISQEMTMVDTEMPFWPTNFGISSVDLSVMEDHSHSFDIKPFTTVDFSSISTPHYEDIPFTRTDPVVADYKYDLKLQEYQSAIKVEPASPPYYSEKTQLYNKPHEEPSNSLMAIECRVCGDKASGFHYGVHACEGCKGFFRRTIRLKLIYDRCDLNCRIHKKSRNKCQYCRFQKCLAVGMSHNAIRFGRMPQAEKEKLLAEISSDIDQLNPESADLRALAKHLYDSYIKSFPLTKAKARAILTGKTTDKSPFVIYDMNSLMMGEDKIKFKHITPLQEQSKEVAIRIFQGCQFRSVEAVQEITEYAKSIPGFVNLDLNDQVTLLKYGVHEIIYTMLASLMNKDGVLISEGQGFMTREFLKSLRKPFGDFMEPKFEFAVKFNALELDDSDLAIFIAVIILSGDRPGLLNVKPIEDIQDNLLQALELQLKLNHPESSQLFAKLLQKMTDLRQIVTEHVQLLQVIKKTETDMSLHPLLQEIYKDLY
Sequence of Angiotensin-converting enzyme 2 (Homo sapiens) (Q9BYF1 18-805 limits assumed): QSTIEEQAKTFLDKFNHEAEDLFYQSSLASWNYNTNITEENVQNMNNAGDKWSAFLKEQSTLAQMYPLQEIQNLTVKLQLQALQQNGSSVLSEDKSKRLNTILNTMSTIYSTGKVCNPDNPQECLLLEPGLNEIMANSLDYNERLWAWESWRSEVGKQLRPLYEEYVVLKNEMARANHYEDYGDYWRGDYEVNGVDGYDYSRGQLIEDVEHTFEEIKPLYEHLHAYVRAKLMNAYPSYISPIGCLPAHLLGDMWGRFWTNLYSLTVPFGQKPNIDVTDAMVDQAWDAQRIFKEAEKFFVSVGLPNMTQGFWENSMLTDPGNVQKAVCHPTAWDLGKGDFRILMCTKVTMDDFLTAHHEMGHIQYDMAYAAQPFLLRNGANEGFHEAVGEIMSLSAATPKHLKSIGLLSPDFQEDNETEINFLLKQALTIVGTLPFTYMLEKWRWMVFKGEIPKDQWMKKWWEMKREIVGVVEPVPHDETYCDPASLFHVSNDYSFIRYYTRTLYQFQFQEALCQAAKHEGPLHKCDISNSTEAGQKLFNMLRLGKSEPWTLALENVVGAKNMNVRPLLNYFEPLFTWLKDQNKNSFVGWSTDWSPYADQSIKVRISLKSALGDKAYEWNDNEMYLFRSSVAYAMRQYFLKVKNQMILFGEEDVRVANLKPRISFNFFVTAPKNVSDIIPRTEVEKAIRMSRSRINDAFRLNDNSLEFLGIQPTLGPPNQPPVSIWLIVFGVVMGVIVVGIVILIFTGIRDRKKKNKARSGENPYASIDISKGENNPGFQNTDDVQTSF
Sequence of Mitogen-activated protein kinase 14 (Homo sapiens) (Q16539 whole entry): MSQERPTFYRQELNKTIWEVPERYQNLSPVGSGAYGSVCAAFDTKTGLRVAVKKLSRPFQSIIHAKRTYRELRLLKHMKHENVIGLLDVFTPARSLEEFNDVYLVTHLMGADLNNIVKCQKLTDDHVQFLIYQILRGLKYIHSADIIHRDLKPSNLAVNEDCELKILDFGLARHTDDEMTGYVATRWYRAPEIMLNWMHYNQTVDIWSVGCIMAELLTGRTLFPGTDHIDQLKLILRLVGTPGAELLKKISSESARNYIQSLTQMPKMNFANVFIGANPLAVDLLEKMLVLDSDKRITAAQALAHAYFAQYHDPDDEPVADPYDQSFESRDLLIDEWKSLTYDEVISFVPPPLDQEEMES
Sequence of Melanocyte-stimulating hormone receptor (Homo sapiens) (Q01726 whole entry, looked up): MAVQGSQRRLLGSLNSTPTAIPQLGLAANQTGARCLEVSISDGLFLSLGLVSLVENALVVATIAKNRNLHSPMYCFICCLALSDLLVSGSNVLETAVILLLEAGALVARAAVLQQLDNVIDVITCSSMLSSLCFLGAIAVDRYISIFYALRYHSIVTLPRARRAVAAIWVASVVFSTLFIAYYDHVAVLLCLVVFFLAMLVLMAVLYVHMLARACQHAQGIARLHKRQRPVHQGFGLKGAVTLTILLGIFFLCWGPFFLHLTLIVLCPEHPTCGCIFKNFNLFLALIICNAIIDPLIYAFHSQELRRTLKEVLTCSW
Sequence of Muscarinic acetylcholine receptor M1 (Homo sapiens) (P11229 whole entry): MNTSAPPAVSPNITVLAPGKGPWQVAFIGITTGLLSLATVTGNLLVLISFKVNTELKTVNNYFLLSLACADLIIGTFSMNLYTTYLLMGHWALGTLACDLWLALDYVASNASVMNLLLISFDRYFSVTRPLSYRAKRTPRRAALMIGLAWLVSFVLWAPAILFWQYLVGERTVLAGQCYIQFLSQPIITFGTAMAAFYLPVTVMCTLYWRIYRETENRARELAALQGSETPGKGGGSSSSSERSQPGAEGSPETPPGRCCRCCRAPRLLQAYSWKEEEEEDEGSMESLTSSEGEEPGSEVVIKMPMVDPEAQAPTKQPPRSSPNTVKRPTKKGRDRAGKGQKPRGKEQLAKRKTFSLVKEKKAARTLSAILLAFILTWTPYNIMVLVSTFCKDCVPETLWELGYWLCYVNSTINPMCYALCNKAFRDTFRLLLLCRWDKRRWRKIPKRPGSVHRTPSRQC
Sequence of Caspase-3 (Homo sapiens) (P42574 29-175 limits assumed): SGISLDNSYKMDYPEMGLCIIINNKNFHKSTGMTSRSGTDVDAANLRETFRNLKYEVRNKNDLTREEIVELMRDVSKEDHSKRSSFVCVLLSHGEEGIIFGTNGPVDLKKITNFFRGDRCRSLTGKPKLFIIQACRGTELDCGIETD
Sequence of Caspase-3 (Homo sapiens) (P42574 176-277 limits assumed): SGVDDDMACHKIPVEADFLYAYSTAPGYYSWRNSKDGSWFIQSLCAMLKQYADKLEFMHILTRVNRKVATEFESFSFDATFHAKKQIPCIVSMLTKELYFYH
Sequence of Adenosine receptor A2a (Homo sapiens) (P29274 whole entry): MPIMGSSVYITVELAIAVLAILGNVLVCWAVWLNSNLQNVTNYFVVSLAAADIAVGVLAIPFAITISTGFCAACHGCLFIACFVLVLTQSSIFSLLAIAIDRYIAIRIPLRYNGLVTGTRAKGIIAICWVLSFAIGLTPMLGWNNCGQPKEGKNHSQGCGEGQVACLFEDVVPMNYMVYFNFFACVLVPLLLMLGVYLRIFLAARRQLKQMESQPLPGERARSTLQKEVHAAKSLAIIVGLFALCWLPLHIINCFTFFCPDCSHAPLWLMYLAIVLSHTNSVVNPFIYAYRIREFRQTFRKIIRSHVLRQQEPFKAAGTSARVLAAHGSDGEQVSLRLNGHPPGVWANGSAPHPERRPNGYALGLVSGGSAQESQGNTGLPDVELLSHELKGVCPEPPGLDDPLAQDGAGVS
Sequence of Adenosine receptor A2b (Homo sapiens) (P29275 whole entry): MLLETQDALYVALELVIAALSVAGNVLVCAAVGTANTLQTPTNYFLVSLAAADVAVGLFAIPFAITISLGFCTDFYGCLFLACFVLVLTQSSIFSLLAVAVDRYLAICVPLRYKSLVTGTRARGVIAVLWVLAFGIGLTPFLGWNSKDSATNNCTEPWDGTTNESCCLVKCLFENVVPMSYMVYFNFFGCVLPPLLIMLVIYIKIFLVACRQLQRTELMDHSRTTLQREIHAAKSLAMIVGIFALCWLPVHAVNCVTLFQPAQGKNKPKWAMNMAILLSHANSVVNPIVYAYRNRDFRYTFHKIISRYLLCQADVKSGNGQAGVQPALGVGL
Sequence of Bombesin receptor subtype-3 (P32247 whole entry): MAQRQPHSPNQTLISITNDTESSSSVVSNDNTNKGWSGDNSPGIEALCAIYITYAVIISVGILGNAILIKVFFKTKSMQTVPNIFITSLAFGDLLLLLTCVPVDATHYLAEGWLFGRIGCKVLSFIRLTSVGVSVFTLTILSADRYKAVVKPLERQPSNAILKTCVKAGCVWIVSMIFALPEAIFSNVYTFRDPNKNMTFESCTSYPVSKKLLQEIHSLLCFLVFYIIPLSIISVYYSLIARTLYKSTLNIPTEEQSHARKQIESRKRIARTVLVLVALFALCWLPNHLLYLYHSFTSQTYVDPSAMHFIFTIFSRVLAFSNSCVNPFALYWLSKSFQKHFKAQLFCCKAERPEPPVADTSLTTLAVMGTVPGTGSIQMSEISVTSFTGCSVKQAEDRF
Sequence of Matrix metalloproteinase-9 (Homo sapiens) (P14780 whole entry): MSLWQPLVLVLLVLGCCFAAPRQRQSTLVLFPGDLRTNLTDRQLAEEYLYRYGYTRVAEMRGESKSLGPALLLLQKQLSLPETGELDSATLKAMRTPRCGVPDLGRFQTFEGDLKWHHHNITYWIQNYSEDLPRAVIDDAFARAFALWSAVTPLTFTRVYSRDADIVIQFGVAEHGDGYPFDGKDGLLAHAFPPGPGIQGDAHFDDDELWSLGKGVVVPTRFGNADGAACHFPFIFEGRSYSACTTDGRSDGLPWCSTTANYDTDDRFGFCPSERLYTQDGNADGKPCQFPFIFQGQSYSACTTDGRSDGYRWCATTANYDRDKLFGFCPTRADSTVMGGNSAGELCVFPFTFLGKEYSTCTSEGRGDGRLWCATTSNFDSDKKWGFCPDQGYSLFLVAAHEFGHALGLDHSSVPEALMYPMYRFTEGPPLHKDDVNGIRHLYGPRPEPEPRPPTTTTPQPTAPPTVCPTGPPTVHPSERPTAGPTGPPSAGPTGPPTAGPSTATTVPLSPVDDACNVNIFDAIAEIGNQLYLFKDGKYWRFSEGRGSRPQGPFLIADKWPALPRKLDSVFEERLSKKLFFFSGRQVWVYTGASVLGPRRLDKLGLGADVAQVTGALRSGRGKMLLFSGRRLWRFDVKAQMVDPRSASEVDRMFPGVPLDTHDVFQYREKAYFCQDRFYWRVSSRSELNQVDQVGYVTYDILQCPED

O=C([C@@H](Cc1cccc(C(F)(F)F)c1)NS(=O)(=O)c1cc(F)c2c(c1)CCNC2)N1CCCC1
inhibition [1]: 3%
inhibition (Homo sapiens [2]): 18%
inhibition [3]: 15%
inhibition [4]: 18%
inhibition [5]: 37%
inhibition [6]: -1%
IC50 [7]: 8.1 µM
inhibition [8]: -3%
inhibition [9]: 15%
inhibition [10]: 41%
inhibition [11]: -6%
inhibition (Homo sapiens [12]): -3%
inhibition (Caspase-3 (Homo sapiens)): 2%
inhibition [13]: 8%
inhibition [14]: -1%
inhibition (Homo sapiens [15]): -1%
inhibition [16]: -9%
Papp [17]: 6.48 ×10⁻⁶ cm/s
inhibition [18]: -8%
inhibition [19]: 43%
inhibition at 10 µM [20]: 4%
inhibition [21]: 10%
inhibition [22]: 15%
inhibition [23]: 16%
inhibition [24]: 10%
inhibition [25]: 16%
inhibition [26]: 7%
IC50 [27]: 14 µM
inhibition [28]: -6%
inhibition (Homo sapiens [29]): -10%
inhibition [30]: -8%
Activity (U2OS): Non-Toxic
Activity (MDA-MB-231): Non-Toxic
inhibition [31]: 25%
inhibition [32]: -10%
inhibition [33]: 5%
inhibition (Homo sapiens [34]): 49%
inhibition (Homo sapiens [35]): 38%
inhibition [36]: 10%
inhibition (Homo sapiens [37]): 11%
inhibition [38]: 4%
inhibition [39]: -1%
inhibition [40]: 47%
